Assay results: US6361788B1, “Synergistic biocide composition” (Thor Chemie GmbH, priority 1997, dated 2002)
Where “and” joins values, the source holds several entries; their conditions need not be identical. Equal values may be shown once. Read-outs that look alike come from different tables or passages of the source.

Legend:
Type in all cases: cell-based
Penicillium funiculosum [1] = assay: MIC and synergy of MIT/BIT (1:1) and BNPD in Sabouraud maltose broth, 72 h; settings: for growth of the microorganism: MIT/BIT 0 ppm; for MIC: Talaromyces funiculosus
Description: In all the examples in which an active substance mixture of MIT and BIT as well as additionally a further active biocidal substance was used, the weight ratio of MIT to BIT was 1:1.
(§1) The synergy index is calculated according to the method of F. C. Kull et al., Applied Microbiology, Vol. 9 (1961), p. 538. Here the synergy index is calculated using the following formula:
(§2) Synergy index SI=Qa/QA+Qb/QB.
The synergy of an active substance that contains 2-bromo-2-nitropropane-1,3-diol (BNPD) in addition to MIT and BIT, against the microorganism Penicillium funiculosum is shown as in Example 1.
The test batches contained a Sabouraud maltose broth as a nutrient medium. The spore concentration was 10^6 per mL. The incubation time was 72 h at 25° C. Each sample was incubated on an incubation shaker at 120 rpm.

Klebsiella pneumoniae = assay: MIC and synergy of MIT and BIT in Müller-Hinton broth, 72 h; settings: for growth of the microorganism: BIT 0 ppm, MIT ppm = row head c0; on growth of the microorganism: key: growth of the microorganism took place (symbol '+'); or not (symbol '−')
Description: as §1, §2
The synergy of the two active substances MIT and BIT against the microorganism Klebsiella pneumoniae is shown as in example 1.
(§3) The test batches again contained a Müller-Hinton broth as a nutrient medium. The cell density was 10^6 cells/mL. The incubation time was 72 h at 25° C. Each sample was incubated on an incubation shaker at 120 rpm.

[2] = tested on: standard bacterial inoculum; assay: Preservation of coating composition B, repeated bacterial inoculation, streak evaluation; set-up: key to Bacterial growth (7 days + 48 h after 4th inoculation): 0: no growth; minimal growth up to 10 colonies; 2: slight growth up to 100 colonies; moderate growth up to 300 colonies; 4: uniform growth, single colonies still discernible; 5: strong growth, too many colonies to count, but not covering entire surface; 6: extensive growth, almost no individual colonies, total streak surface overgrown
Description: (§4) The biocides shown in Table XI below were added respectively to 50 g of coating composition A. The stated amounts of biocide refer to the amount of coating composition A. In the MIT/BIT mixtures, the two biocides were present in a weight ratio of 1:1.
(§5) Apart from a blank test without addition of biocide, 1 mL of a standard bacterial inoculum that contained the following bacterial strains was added to each sample of coating composition A:
(§6) The cell density of the inoculum was 10^10 to 3·10^10 cells/mL, and the cell density of the samples was 2·10^8 to 6·10^8 cells/g. The samples were held at 30° C. for 7 days. Then a streak of each sample was produced on a nutrient agar plate, held at 30° C. for 48 h, and then evaluated for bacterial growth. The following evaluation scale was used:
(§7) When the bacterial growth was evaluated as below 6, a second bacterial inoculum of the above-mentioned type was added to the corresponding original 50 g sample and it was again held at 30° C. for 7 days. Then a streak was again produced on a nutrient agar plate, which was again evaluated for its bacterial growth after a holding time of 48 h at 30° C.
(§8) When the bacterial growth of the streak was evaluated as 6 for a sample, the testing of this sample was terminated. As long as a sample had not reached this number, a bacterial inoculum was again added in the above-mentioned manner and the sample was held and tested by means of a streak. This procedure was repeated as necessary, with a maximum of 4 bacterial inocula being added per sample.
Example 9 was repeated, but using coating composition B instead of coating composition A.
Coating composition B is a particularly low-emission plaster based on a polymer dispersion commercially available under the designation “Granol KR 3.0 LF” (company Steinwerke Kupferdreh GmbH).

Penicillium funiculosum [3] = assay: MIC and synergy of MIT and BIT in Sabouraud maltose broth, 96 h
Description: as §1, §2
The synergy of the two active substances MIT and BIT against the microorganism Penicillium funiculosum is shown as in Example 1.
(§9) The test batches contained a Sabouraud maltose broth as a nutrient medium. The spore concentration was 10^6 per mL. The incubation time was 96 h at 25° C. Each sample was incubated on an incubation shaker at 120 rpm.

[4] = tested on: standard bacterial inoculum; assay: Preservation of coating composition A, repeated bacterial inoculation, streak evaluation; set-up: key: 0: no growth; minimal growth up to 10 colonies; 2: slight growth up to 100 colonies; moderate growth up to 300 colonies; 4: uniform growth, single colonies still discernible; 5: strong growth, too many colonies to count, but not covering entire surface; 6: extensive growth, almost no individual colonies, total streak surface overgrown
Excerpt: Biocide compositions according to the invention were incorporated into a coating composition A that is used for coating building facades. This coating composition is a plaster based on an aqueous polymer dispersion commercially available under the designation “Granol KR 3.0” (company Steinwerke Kupferdreh GmbH). The addition of the biocide composition of the invention served to preserve the coating composition before its use, i.e., while it was stored in its packing drums.
as §4, §5, §6, §7, §8

Escherichia coli = assay: MIC and synergy of MIT and BIT in Müller-Hinton broth, 72 h; settings: for growth of the microorganism: BIT 0 ppm, MIT ppm = row head c0; on growth of the microorganism: key: growth of the microorganism took place (symbol '+'); or not (symbol '−')
Description: For this purpose, aqueous mixtures were produced with various concentrations of 2-methylisothiazolin-3-one (MIT) and 1,2-benzisothiazolin-3-one (BIT) and the activity of these mixtures on Escherichia coli (International Mycological Institute, Strain No. IMI 362054) was tested.
In addition to the biocide component and water, the aqueous mixtures contained a nutrient medium, namely a Müller-Hinton broth (commercial product “Merck No. 10393”). The cell density of Escherichia coli was 10^6 cells/mL. The incubation time was 72 h at 25° C. Each sample was incubated on an incubation shaker at 120 rpm.
as §1, §2
When the synergy index has the value 1, this means that there is an addition of the activity of the two biocides. When the synergy index has a value of less than 1, this means that a synergy of the two biocides exists.

Pseudomonas aeruginosa = assay: MIC and synergy of MIT and BIT in Müller-Hinton broth, 48 h
Description: as §1, §2
The synergy of the two active substances MIT and BIT against the microorganism Pseudomonas aeruginosa is shown as in Example 1.
(§10) The test batches again contained a Müller-Hinton broth as a nutrient medium. The cell density was 10^6 cells/mL. The incubation time was 48 h at 25° C. Each sample was incubated on an incubation shaker at 120 rpm.

Pseudomonas putida = assay: as above; on growth of the microorganism: key: growth of the microorganism took place (symbol '+'); or not (symbol '−')
Description: as §1, §2
The synergy of the two active substances MIT and BIT against the microorganism Pseudomonas putida is shown as in Example 1.
as §10

Aspergillus niger = assay: MIC and synergy of MIT and BIT in Sabouraud maltose broth, 96 h
Description: as §1, §2
The synergy of the two active substances MIT and BIT against the microorganism Aspergillus niger is shown as in Example 1.
as §9

Pseudomonas stutzeri = assay: MIC and synergy of MIT and BIT in Müller-Hinton broth, 72 h; settings: for growth of the microorganism: BIT 0 ppm, MIT ppm = row head c0; on growth of the microorganism: key: growth of the microorganism took place (symbol '+'); or not (symbol '−')
Description: as §1, §2
The synergy of MIT and BIT against the microorganism Pseudomonas stutzeri is shown as in Example 1.
as §3

[5] = MIT/BIT 0.0% by wt, BNPD 100.0% by wt, 72 h
[6] = MIT share of the BIT/MIT mixture at MIC, 72 h
[7] = share of the BIT/MIT mixture at MIC, 96 h
[8] = MIT share of the BIT/MIT mixture at MIC, 48 h

Compound: O=[N+]([O-])C(Br)(CO)CO [BNPD, 2-bromo-2-nitropropane-1,3-diol]
- Qb/QB (Penicillium funiculosum [1]; [5]): 1.00
- Synergy index Qa/QA + Qb/QB (Penicillium funiculosum [1]; [5]): 1.00
- growth of the microorganism (Penicillium funiculosum [1]; BNPD 25 ppm, 72 h): +
- growth of the microorganism (Penicillium funiculosum [1]; BNPD 50 ppm, 72 h): +
- growth of the microorganism (Penicillium funiculosum [1]; BNPD 100 ppm, 72 h): +
- growth of the microorganism (Penicillium funiculosum [1]; BNPD 150 ppm, 72 h): +
- growth of the microorganism (Penicillium funiculosum [1]; BNPD 200 ppm, 72 h): +
- growth of the microorganism (Penicillium funiculosum [1]; BNPD 300 ppm, 72 h): +
- growth of the microorganism (Penicillium funiculosum [1]; BNPD 400 ppm, 72 h): +
- growth of the microorganism (Penicillium funiculosum [1]; BNPD 600 ppm, 72 h): −
- growth of the microorganism (Penicillium funiculosum [1]; BNPD 800 ppm, 72 h): −
- growth of the microorganism (Penicillium funiculosum [1]; BNPD 1000 ppm, 72 h): −
- MIC (Penicillium funiculosum [1]; MIT/BIT 0.0% by wt, BNPD 100.0% by wt, 72 h, read-out: MIC at BNPD concentration Qb): 600 µg/mL
- MIC (Penicillium funiculosum [1]; MIT/BIT 0.0% by wt, BNPD 100.0% by wt, 72 h, read-out: MIC at Total concentration MIT/BIT + BNPD): 600 µg/mL
- MIC (Penicillium funiculosum [1]; used alone, 72 h at 25° C., read-out: MIC value): 600 µg/mL

Compound: Cn1sccc1=O [MIT, 2-methylisothiazolin-3-one]
- MIC at Total concentration BIT + MIT Qa + Qb (Klebsiella pneumoniae; 72 h): 20 ppm
- Qb/QB (Klebsiella pneumoniae; 72 h): 1.00
- Synergy index Qa/QA + Qb/QB (Klebsiella pneumoniae; 72 h): 1.00
- growth of the microorganism (Klebsiella pneumoniae; 72 h, MIT 12.5 ppm): +
- growth of the microorganism (Klebsiella pneumoniae; 72 h, MIT 25 ppm): −
- MIC at MIT concentration Qb (Klebsiella pneumoniae; [6]): 20 ppm
- MIC value (Klebsiella pneumoniae; used alone, 72 h at 25° C.): 20 ppm
- Bacterial growth (7 days + 48 h after 4th inoculation) ([2]; biocide 0.005% by wt): 4
- Bacterial growth (7 days + 48 h after 4th inoculation) ([2]; biocide 0.01% by wt): 1 (minimal growth up to 10 colonies)
- Bacterial growth (7 days + 48 h after 4th inoculation) ([2]; biocide 0.015% by wt): 1 (minimal growth up to 10 colonies)
- Bacterial growth (7 days + 48 h after 4th inoculation) ([2]; biocide 0.02% by wt): prevented completely and 0
- Bacterial growth (7 days + 48 h after 4th inoculation) ([2]; biocide 0.03% by wt): prevented completely and 0
- MIC at Total concentration BIT + MIT Qa + Qb (Penicillium funiculosum [3]; 96 h): 40 ppm
- Qb/QB (Penicillium funiculosum [3]; 96 h): 1.00
- Synergy index Qa/QA + Qb/QB (Penicillium funiculosum [3]; 96 h): 1.00
- MIC at MIT concentration Qb (Penicillium funiculosum [3]; [7]): 40 ppm
- MIC value (Penicillium funiculosum [3]; used alone, 96 h at 25° C.): 200 ppm
- Bacterial growth (7 days + 48 h after 4th inoculation) ([4]; biocide 0.005% by wt): full bacterial growth was reached only after four inoculations and 6
- Bacterial growth (7 days + 48 h after 4th inoculation) ([4]; biocide 0.01% by wt): 5
- Bacterial growth (7 days + 48 h after 4th inoculation) ([4]; biocide 0.015% by wt): 5
- Bacterial growth (7 days + 48 h after 4th inoculation) ([4]; biocide 0.02% by wt): 4
- Bacterial growth (7 days + 48 h after 4th inoculation) ([4]; biocide 0.03% by wt): no bacterial growth found even after four inoculations and 0
- MIC at Total concentration BIT + MIT Qa + Qb (Escherichia coli; 72 h): 17.5 ppm
- Qb/QB (Escherichia coli; 72 h): 1.00
- Synergy index Qa/QA + Qb/QB (Escherichia coli; 72 h, method of Kull): 1.00
- growth of the microorganism (Escherichia coli; 72 h, MIT 10 ppm): +
- growth of the microorganism (Escherichia coli; 72 h, MIT 25 ppm): −
- MIC at MIT concentration Qb (Escherichia coli; [6]): 17.5 ppm
- MIC value (Escherichia coli; used alone, 72 h at 25° C.): 17.5 ppm
- MIC at Total concentration BIT + MIT Qa + Qb (Pseudomonas aeruginosa; 48 h): 30 ppm
- Qb/QB (Pseudomonas aeruginosa; 48 h): 1.00
- Synergy index Qa/QA + Qb/QB (Pseudomonas aeruginosa; 48 h): 1.00
- MIC at MIT concentration Qb (Pseudomonas aeruginosa; [8]): 30 ppm
- MIC value (Pseudomonas aeruginosa; used alone, 48 h at 25° C.): 30 ppm
- MIC at Total concentration BIT + MIT Qa + Qb (Pseudomonas putida; 48 h): 12.5 ppm
- Qb/QB (Pseudomonas putida; 48 h): 1.00
- Synergy index Qa/QA + Qb/QB (Pseudomonas putida; 48 h): 1.00
- growth of the microorganism (Pseudomonas putida; BIT 0 ppm, MIT ppm = row head c0, 48 h): + and −
- MIC at MIT concentration Qb (Pseudomonas putida; [8]): 12.5 ppm
- MIC value (Pseudomonas putida; used alone, 48 h at 25° C.): 12.5 ppm
- MIC at Total concentration BIT + MIT Qa + Qb (Aspergillus niger; 96 h): 100 ppm
- Qb/QB (Aspergillus niger; 96 h): 1.00
- Synergy index Qa/QA + Qb/QB (Aspergillus niger; 96 h): 1.00
- MIC at MIT concentration Qb (Aspergillus niger; [7]): 100 ppm
- MIC value (Aspergillus niger; used alone, 96 h at 25° C.): 750 ppm
- MIC at Total concentration BIT + MIT Qa + Qb (Pseudomonas stutzeri; 72 h): 12.5 ppm
- Qb/QB (Pseudomonas stutzeri; 72 h): 1.00
- Synergy index Qa/QA + Qb/QB (Pseudomonas stutzeri; 72 h): 1.00
- growth of the microorganism (Pseudomonas stutzeri; 72 h, MIT 10 ppm): +
- growth of the microorganism (Pseudomonas stutzeri; 72 h, MIT 15 ppm): −
- MIC at MIT concentration Qb (Pseudomonas stutzeri; [6]): 12.5 ppm
- MIC value (Pseudomonas stutzeri; used alone, 72 h at 25° C.): 12.5 ppm
